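At the GI50, growth is halved. TGI is the concentration that stops growth completely.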
How the values were obtained:
Experiment in all cases: growth of human tumour cells (NCI), 384-well format
[1] = tested on: 786-0 renal
[2] = tested on: A498 renal
[3] = tested on: A549 NSCLC
[4] = tested on: ACHN renal
[5] = tested on: BT-549 breast
[6] = tested on: CAKI-1 renal
[7] = tested on: COLO 205 colon
[8] = tested on: DU-145 prostate
[9] = tested on: EKVX NSCLC
[10] = tested on: HCC-2998 colon
[11] = tested on: HCT-116 colon
[12] = tested on: HCT-15 colon
[13] = tested on: HL-60(TB) leukemia
[14] = tested on: HOP-62 NSCLC
[15] = tested on: HOP-92 NSCLC
[16] = tested on: HS 578T breast
[17] = tested on: HT29 colon
[18] = tested on: IGROV1 ovarian
[19] = tested on: KM12 colon
[20] = tested on: LOX IMVI melanoma
[21] = tested on: M14 melanoma
[22] = tested on: MALME-3M melanoma
[23] = tested on: MCF7 breast
[24] = tested on: MDA-MB-231 breast
[25] = tested on: RXF 393 renal
[26] = tested on: SK-OV-3 ovarian
[27] = tested on: SN12C renal
[28] = tested on: CCRF-CEM leukemia
[29] = tested on: K-562 leukemia
[30] = tested on: MDA-MB-435 melanoma
[31] = tested on: MDA-MB-468 breast
[32] = tested on: MOLT-4 leukemia
[33] = tested on: NCI-H226 lung
[34] = tested on: NCI-H23 lung
[35] = tested on: NCI-H322M lung
[36] = tested on: NCI-H460 NSCLC
[37] = tested on: NCI-H522 lung
[38] = tested on: NCI/ADR-RES ovarian
[39] = tested on: OVCAR-3 ovarian
[40] = tested on: OVCAR-4 ovarian
[41] = tested on: OVCAR-8 ovarian
[42] = tested on: PC-3 prostate
[43] = tested on: RPMI-8226 leukemia
[44] = tested on: SF-268 CNS
[45] = tested on: SF-295 CNS
[46] = tested on: SF-539 CNS
[47] = tested on: SK-MEL-2 melanoma
[48] = tested on: SK-MEL-28 melanoma
[49] = tested on: SK-MEL-5 melanoma
[50] = tested on: SNB-19 CNS
[51] = tested on: SNB-75 CNS
[52] = tested on: SW-620 colon
[53] = tested on: TK-10 renal
[54] = tested on: U251 glioblastoma
[55] = tested on: UACC-257 melanoma
[56] = tested on: UACC-62 melanoma

## CN1CCC(COc2cnc(-c3cccc(Cn4nc(-c5cccc(C#N)c5)ccc4=O)c3)nc2)CC1
[1]
  GI50: 1690 nM
  TGI: 3220 nM
[2]
  GI50: 2040 nM
  TGI: 3620 nM
[3]
  GI50: 2200 nM
  TGI: 4560 nM
[4]
  GI50: 2050 nM
  TGI: 3760 nM
[5]
  GI50: 1440 nM
  TGI: 2760 nM
[6]
  GI50: 1730 nM
  TGI: 3200 nM
[7]
  GI50: 2460 nM
  TGI: 5350 nM
[8]
  GI50: 2530 nM
  TGI: 5890 nM
[9]
  GI50: 2770 nM
  TGI: 6490 nM
[10]
  GI50: 3200 nM
  TGI: 5670 nM
[11]
  GI50: 1750 nM
  TGI: 3160 nM
[12]
  GI50: 1450 nM
  TGI: 2940 nM
[13]
  GI50: 1570 nM
  TGI: 2910 nM
[14]
  GI50: 1960 nM
  TGI: 3770 nM
[15]
  GI50: 1720 nM
  TGI: 3400 nM
[16]
  GI50: 1480 nM
  TGI: 2850 nM
[17]
  GI50: 1740 nM
  TGI: 3150 nM
[18]
  GI50: 2170 nM
  TGI: 4160 nM
[19]
  GI50: 2380 nM
  TGI: 4810 nM
[20]
  GI50: 1710 nM
  TGI: 3100 nM
[21]
  GI50: 2090 nM
  TGI: 3530 nM
[22]
  GI50: 1590 nM
  TGI: 2930 nM
[23]
  GI50: 1680 nM
  TGI: 3360 nM
[24]
  GI50: 1940 nM
  TGI: 3410 nM
[25]
  GI50: 1320 nM
  TGI: 2640 nM
[26]
  GI50: > 100000 nM
  TGI: > 100000 nM
[27]
  GI50: > 100000 nM
  TGI: > 100000 nM

## CN(C)c1ccc(N)c2ccccc12
[1]
  GI50: 2160 nM
  TGI: 9600 nM
[2]
  GI50: 11900 nM
  TGI: 24300 nM
[3]
  GI50: 4160 nM
  TGI: 16600 nM
[4]
  GI50: 12100 nM
  TGI: 24600 nM
[5]
  GI50: 1500 nM
  TGI: 2840 nM
[6]
  GI50: 13100 nM
  TGI: 26000 nM
[28]
  GI50: 4650 nM
  TGI: 19100 nM
[7]
  GI50: 2090 nM
  TGI: 4210 nM
[8]
  GI50: 1410 nM
  TGI: 2730 nM
[9]
  GI50: 1700 nM
  TGI: 8100 nM
[10]
  GI50: 2400 nM
  TGI: 16200 nM
[11]
  GI50: 2200 nM
  TGI: 5930 nM
[12]
  GI50: 1470 nM
  TGI: 3540 nM
[13]
  GI50: 814 nM
  TGI: 2100 nM
[14]
  GI50: 1590 nM
  TGI: 2980 nM
[15]
  GI50: 5850 nM
  TGI: 19500 nM
[16]
  GI50: 2440 nM
  TGI: 6720 nM
[17]
  GI50: 4550 nM
  TGI: 16400 nM
[18]
  GI50: 1860 nM
  TGI: 16100 nM
[29]
  GI50: 18400 nM
  TGI: 32400 nM
[19]
  GI50: 3650 nM
  TGI: 14800 nM
[20]
  GI50: 217 nM
  TGI: 1560 nM
[21]
  GI50: 1500 nM
  TGI: 2840 nM
[22]
  GI50: 448 nM
  TGI: 1680 nM
[23]
  GI50: 1340 nM
  TGI: 2640 nM
[30]
  GI50: 1360 nM
  TGI: 2650 nM
[31]
  GI50: 591 nM
  TGI: 4610 nM
[32]
  GI50: 802 nM
  TGI: 2480 nM
[33]
  GI50: 1280 nM
  TGI: 7630 nM
[34]
  GI50: 1470 nM
  TGI: 2880 nM
[35]
  GI50: 2100 nM
  TGI: 3860 nM
[36]
  GI50: 2930 nM
  TGI: 10400 nM
[37]
  GI50: 2770 nM
  TGI: 11600 nM
[38]
  GI50: 11800 nM
  TGI: 24600 nM
[39]
  GI50: 1160 nM
  TGI: 2520 nM
[40]
  GI50: 397 nM
  TGI: 3650 nM
[41]
  GI50: 5330 nM
  TGI: 17500 nM
[42]
  GI50: 1340 nM
  TGI: 6240 nM
[43]
  GI50: 1830 nM
  TGI: 5980 nM
[25]
  GI50: 2680 nM
  TGI: 10500 nM
[44]
  GI50: 8320 nM
  TGI: 20500 nM
[45]
  GI50: 7170 nM
  TGI: 20100 nM
[46]
  GI50: 1750 nM
  TGI: 3300 nM
[47]
  GI50: 1260 nM
  TGI: 2770 nM
[48]
  GI50: 1760 nM
  TGI: 3710 nM
[49]
  GI50: 146 nM
  TGI: 1610 nM
[26]
  GI50: 10100 nM
  TGI: 21800 nM
[27]
  GI50: 1760 nM
  TGI: 3190 nM
[50]
  GI50: 3400 nM
  TGI: 11700 nM
[51]
  GI50: 2390 nM
  TGI: 7530 nM
[52]
  GI50: 1640 nM
  TGI: 3110 nM
[53]
  GI50: 11300 nM
  TGI: 23500 nM
[54]
  GI50: 7750 nM
  TGI: 20400 nM
[55]
  GI50: 1040 nM
  TGI: 2220 nM
[56]
  GI50: 1240 nM
  TGI: 2500 nM

Source: PubChem BioAssay (NCI)
